Tests used:
PIKFYVE [1] = target: T1, PIKFYVE (Homo sapiens, UniProt Q9Y2I7); assay: PIKFYVE assay (luciferase ADP-Glo kinase assay, Promega); assay type: biochemical; details: Table 3
Outline: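 ADP generated in the kinase reaction was detected by ADP-Glo luminescence (luciferase).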

PIKFYVE [2] = target: T1, PIKFYVE; assay: Cell-based Pikfyve inhibition activity assay (EEA1 staining, mean vesicle size in BJ fibroblast cells); details: Table 4, 4 hours treatment, 3 μM Apilimod = 100% inhibition
Outline: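 BJ fibroblasts treated 4 h at 37° C with eleven 3-fold doses (0.03-3000 nM), then fixed and stained for EEA1. Confocal images (20×, 16 tiles/well) analysed for mean vesicle size. Normalised to 0.5% DMSO (0%) and 3 μM apilimod (100%); dose-response fitted with variable slope.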

T1 sequence (Q9Y2I7 whole entry): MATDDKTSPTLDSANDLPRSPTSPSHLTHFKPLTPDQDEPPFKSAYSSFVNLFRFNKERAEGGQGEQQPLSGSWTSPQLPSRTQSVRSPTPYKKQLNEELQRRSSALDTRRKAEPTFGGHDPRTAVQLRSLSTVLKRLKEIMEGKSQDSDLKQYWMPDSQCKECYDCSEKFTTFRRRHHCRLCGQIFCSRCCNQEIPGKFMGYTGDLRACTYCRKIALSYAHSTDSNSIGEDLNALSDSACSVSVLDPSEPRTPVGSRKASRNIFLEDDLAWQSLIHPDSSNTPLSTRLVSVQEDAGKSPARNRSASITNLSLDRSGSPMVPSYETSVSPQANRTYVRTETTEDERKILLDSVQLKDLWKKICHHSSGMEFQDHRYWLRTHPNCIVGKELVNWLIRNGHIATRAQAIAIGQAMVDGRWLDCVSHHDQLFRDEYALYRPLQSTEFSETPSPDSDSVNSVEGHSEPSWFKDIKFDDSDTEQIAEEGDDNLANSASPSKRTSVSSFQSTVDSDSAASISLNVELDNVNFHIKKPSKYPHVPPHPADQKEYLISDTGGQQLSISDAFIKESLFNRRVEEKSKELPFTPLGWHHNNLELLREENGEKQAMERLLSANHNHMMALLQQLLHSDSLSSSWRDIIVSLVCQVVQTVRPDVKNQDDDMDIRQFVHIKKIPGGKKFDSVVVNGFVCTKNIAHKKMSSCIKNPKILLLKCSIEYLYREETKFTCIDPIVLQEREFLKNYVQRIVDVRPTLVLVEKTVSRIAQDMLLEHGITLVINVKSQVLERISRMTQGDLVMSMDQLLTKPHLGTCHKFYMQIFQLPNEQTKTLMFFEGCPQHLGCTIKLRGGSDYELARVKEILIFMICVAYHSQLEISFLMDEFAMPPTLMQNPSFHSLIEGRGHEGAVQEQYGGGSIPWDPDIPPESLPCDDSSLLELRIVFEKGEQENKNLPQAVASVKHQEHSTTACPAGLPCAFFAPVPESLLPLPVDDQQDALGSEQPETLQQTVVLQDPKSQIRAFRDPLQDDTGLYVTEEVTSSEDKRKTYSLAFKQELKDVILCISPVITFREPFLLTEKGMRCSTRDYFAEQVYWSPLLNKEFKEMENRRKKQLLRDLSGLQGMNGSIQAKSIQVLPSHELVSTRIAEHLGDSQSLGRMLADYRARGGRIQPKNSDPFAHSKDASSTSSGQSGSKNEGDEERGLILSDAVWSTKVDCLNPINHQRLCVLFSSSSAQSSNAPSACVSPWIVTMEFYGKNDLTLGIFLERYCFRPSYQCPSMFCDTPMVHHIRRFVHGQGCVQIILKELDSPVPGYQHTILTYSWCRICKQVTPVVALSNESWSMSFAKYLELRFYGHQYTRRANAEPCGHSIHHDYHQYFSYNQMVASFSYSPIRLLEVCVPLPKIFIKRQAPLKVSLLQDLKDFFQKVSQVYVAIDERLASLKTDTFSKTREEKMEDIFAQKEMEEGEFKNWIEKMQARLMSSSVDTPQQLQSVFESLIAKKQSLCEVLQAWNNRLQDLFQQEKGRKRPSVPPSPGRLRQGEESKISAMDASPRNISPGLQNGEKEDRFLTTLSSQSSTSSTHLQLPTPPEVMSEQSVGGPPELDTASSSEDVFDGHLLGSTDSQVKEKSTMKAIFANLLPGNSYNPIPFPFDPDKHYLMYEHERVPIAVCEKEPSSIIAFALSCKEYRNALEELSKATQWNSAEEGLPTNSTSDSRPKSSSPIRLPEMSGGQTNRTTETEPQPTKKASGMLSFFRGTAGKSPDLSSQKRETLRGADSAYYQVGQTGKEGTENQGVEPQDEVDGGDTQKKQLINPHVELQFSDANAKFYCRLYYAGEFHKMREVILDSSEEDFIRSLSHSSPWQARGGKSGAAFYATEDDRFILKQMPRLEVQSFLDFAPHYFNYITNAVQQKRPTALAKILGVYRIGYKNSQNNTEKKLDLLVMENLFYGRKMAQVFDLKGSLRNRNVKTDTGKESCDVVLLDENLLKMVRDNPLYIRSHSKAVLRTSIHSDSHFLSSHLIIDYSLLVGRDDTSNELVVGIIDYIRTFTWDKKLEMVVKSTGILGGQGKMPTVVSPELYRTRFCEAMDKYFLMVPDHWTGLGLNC

SMILES	IC50 (PIKFYVE [1]) [nM]	EC50 (PIKFYVE [2]) [nM]
Cc1cccc(-c2ccn(-c3cc(N4CCOCC4)nc(CCc4cccnn4)n3)n2)c1 [Compound 317, 4-(2-(2-(pyridazin-3-yl)ethyl)-6-(3-(m-tolyl)-1H-pyrazol-1-yl)pyrimidin-4-yl)morpholine]	3 to 10	100 to 500
Cc1cccc(-c2ccn(-c3cc(N4CCOCC4)nc(C4CCOCC4)n3)n2)c1 [Compound 326, 4-(2-(tetrahydro-2H-pyran-4-yl)-6-(3-(m-tolyl)-1H-pyrazol-1-yl)pyrimidin-4-yl)morpholine]	10 to 100	500 to 5000
Cc1cccc(-c2ccn(-c3cc(N4CCOCC4)nc([C@H]4C[C@@H](O)CO4)n3)n2)c1 [Compound 331, (3R,5R)-5-(4-morpholino-6-(3-(m-tolyl)-1H-pyrazol-1-yl)pyrimidin-2-yl)tetrahydrofuran-3-ol]	3 to 10	100 to 500
Cc1cccc(-c2ccn(-c3cc(N4CCOCC4)nc([C@H]4C[C@H](O)CO4)n3)n2)c1 [Compound 332, (3S,5R)-5-(4-morpholino-6-(3-(m-tolyl)-1H-pyrazol-1-yl)pyrimidin-2-yl)tetrahydrofuran-3-ol]	3 to 10	500 to 5000
Cc1cccc(-c2ccn(-c3cc(N4CCOCC4)c4[nH]c(C)cc4n3)n2)c1 [Compound 334, 4-(2-methyl-5-(3-(m-tolyl)-1H-pyrazol-1-yl)-1H-pyrrolo[3,2-b]pyridin-7-yl)morpholine]	10 to 100	500 to 5000
Cc1cccc(-c2ccn(-c3cc(N4CCOCC4)c4[nH]cc(C)c4n3)n2)c1 [Compound 335, 4-(3-methyl-5-(3-(m-tolyl)-1H-pyrazol-1-yl)-1H-pyrrolo[3,2-b]pyridin-7-yl)morpholine]	10 to 100	500 to 5000
Cc1cccc(-c2ccn(-c3cc(N4CCOCC4)n4nc(C)cc4n3)n2)c1 [Compound 336, 4-(2-methyl-5-(3-(m-tolyl)-1H-pyrazol-1-yl)pyrazolo[1,5-a]pyrimidin-7-yl)morpholine]	10 to 100	500 to 5000
Cc1cccc(-c2ccn(-c3cc(N4CCOCC4)n4ncc(C)c4n3)n2)c1 [Compound 337, 4-(3-methyl-5-(3-(m-tolyl)-1H-pyrazol-1-yl)pyrazolo[1,5-a]pyrimidin-7-yl)morpholine]	10 to 100	500 to 5000

Further lines, results first:

IC50 (PIKFYVE [1]) [nM]	EC50 (PIKFYVE [2]) [nM]	SMILES
3 to 10	> 5000	Cc1cccc(-c2ccn(-c3cc(N4CCOCC4)nc(CCc4ccnn4C)n3)n2)c1 [Compound 338, 4-(2-(2-(1-methyl-1H-pyrazol-5-yl)ethyl)-6-(3-(m-tolyl)-1H-pyrazol-1-yl)pyrimidin-4-yl)morpholine]
3 to 10	100 to 500	Cc1cccc(-c2ccn(-c3cc(N4CCOCC4)nc(-n4cnc(CCO)c4)n3)n2)c1 [Compound 339, 2-(1-(4-morpholino-6-(3-(m-tolyl)-1H-pyrazol-1-yl)pyrimidin-2-yl)-1H-imidazol-4-yl)ethan-1-ol]
< 3	20 to 100	Cc1cccc(Oc2ccn(-c3cc(N4CCOCC4)nc(OCCc4cnn(C)c4)n3)n2)c1 [Compound 346]
3 to 10	100 to 500	COC(C)(C)c1nc(N2CCOCC2)cc(-n2ccc(-c3cccc(C)c3)n2)n1 [Compound 347, 4-(2-(2-methoxypropan-2-yl)-6-(3-(m-tolyl)-1H-pyrazol-1-yl)pyrimidin-4-yl)morpholine]

— US20230135152A1 (ACURASTEM INCORPORATED, priority 2020, published 2023)
